Earlier results on one compound are cited in PMC2898477, “High-quality crystals of human haematopoietic prostaglandin D synthase with novel inhibitors” (2010).

For the data set, the target named is T1, haematopoietic prostaglandin D synthase (H-PGDS) (Homo sapiens, UniProt O60760).
T1 construct: gene HPGDS
The data set can be described thus: co-crystallization and X-ray diffraction of the complex ([…] Å, P1); IC50 cited from Aritake et al. […]. Format: biochemical.

T1 sequence (O60760 whole entry): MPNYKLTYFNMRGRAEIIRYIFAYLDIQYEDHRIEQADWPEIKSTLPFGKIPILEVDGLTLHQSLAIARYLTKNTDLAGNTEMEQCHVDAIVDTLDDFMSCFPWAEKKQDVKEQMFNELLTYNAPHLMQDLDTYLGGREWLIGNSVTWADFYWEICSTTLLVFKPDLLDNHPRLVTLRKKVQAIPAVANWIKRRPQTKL

Consider `c1ccc(C(OC2CCN(CCCc3nnn[nH]3)CC2)c2ccccc2)cc1` [HQL-79, 4-benzhydryloxy-1-[3-(1H-tetrazol-5-yl)-propyl]-piperidine], for which the IC50 is 5.9 µM.

The IC50 is the concentration needed to halve the response being measured.
